Series [1] can be described thus: Measurement of viscosity (cone-and-plate viscosimeter). The format is physicochemical. As to conditions: for Viscosity, in words: 25° C.; for Viscosity at 25° C.: constant shear rate 300 s^-1, 25° C. The method, then: For measuring the viscosity, an MC 200 cone-and-plate viscosimeter from Anton Paar GmbH (cone unit MK 22/50 mm, 10) was used. First, the shear rate was varied with a stepped slope and subsequently the viscosity was determined at a constant shear rate (300 s^−1) every 30 seconds. The measurement was carried out at 25° C.

Series [2] has as its system L929 mice fibroblast cells. The series can be described thus: Cytotoxicity (residual protein content of the cells). It counts as cell-based. The settings on record: for Cytotoxicity, in words: L929 cells; for EC50: concentration at which 50% of the L929 cells are damaged; for EC50 / Concentration limit: incubation 48 h; for Concentration limit: toxicological concentration limit: reduction of protein content of L929 cells by more than 30% relative to negative control. The method, then: The cytotoxicity of various monomers was determined by a certified laboratory by means of L929 mice fibroblast cells. As a (toxic) positive control, Triton X 100 was added to L929 cells with a final concentration of 1% (v/v). As a (non-toxic) negative control, a cell culture medium was used.
After completion of the incubation, the residual protein content of the cells was determined. A reduction of the protein content from L929 cells by more than 30%, relative to the negative control, was evaluated as cytotoxic (which corresponds to the toxicological concentration limit). From this, the half maximal effective concentration (EC50), at which 50% of the cells are damaged, can be calculated.

A short description of series [3]: Maximum reaction speed by Photo Differential Scanning Calorimetry (Photo-DSC). As to conditions: yne monomer with TMPMP and 5 wt.-% photoinitiator mixture (comparatives without thiol); 1 W/cm^2, 50° C., nitrogen. The method, then:
The maximum reaction speed of various monomers was evaluated by means of Photo Differential Scanning Calorimetry (Photo-DSC). 8 mg of the respective test mixtures consisting of yne monomer (as shown in the following table 1) and thiol monomer (trimethylpropane tri(3-mercaptopropionate), TMPMP) as well as 5 wt.-% of a photoinitiator mixture (2-hydroxy-2-methyl-1-phenyl propanone/diphenyl 2,4,6-trimethylbenzoyl phosphane oxide, 50 wt.-%/50 wt.-%) were provided. As comparative test mixtures, acrylate and methacrylate without thiol monomer, but together with 5 wt.-% of the same photoinitiator mixture were provided. The test mixtures were placed in a crucible of aluminium and irradiated with an Omnicure® lamp at an intensity of 1 W/cm^2 at 50° C. under a nitrogen gas atmosphere to thereby cure the test mixtures.
The times (tmax) for reaching the maximum reaction enthalpy indicate the reactivity of the photo-reactive systems. FIG. 1 is a graphical illustration of the test results (tmax) further showing the chemical structural formulas of the tested alkyne monomers and comparative (meth)acryl monomers.
(In general: In DSC, transitions show as peaks or steps in heat flow.)

As usually defined, the EC50 is the concentration giving half of the maximal effect. Read a high EC50 as lower potency in that assay.

`CCC#COCCCCOC#CCC` [1,4-butanediol dibut-1-ynyl ether]: in series [1], the “Viscosity, in words” value is reported as “relatively low values” and the “Viscosity at 25° C.” value was found to be 6.1 mPa*s. In series [2], the “Cytotoxicity, in words” value is reported as “excellently low cytotoxicity” and the Concentration limit is above 1100 µM. This compound also had an EC50 in series [2] (Mus musculus) of 2000 µM. In series [3], the “tmax (time for reaching the maximum reaction enthalpy)” value (“tmax” below) came to 2.22 s.
`C=CC(=O)OCCCCOC(=O)C=C` [1,4-butanediol diacrylate, reference compound]: the “Viscosity at 25° C.” value in series [1] is recorded as 4.3 mPa*s. In addition, in series [2], the “Cytotoxicity, in words” value was “particularly cytotoxic” and the Concentration limit is below 160 µM. Besides, the “tmax” value in series [3] stood at 1.80 s.
Regarding `C#CCOC(=O)OCC(CC)(COC(=O)OCC#C)COC(=O)OCC#C` [Trimethylolpropane tripropargyl carbonate], the “tmax” value in series [3] is recorded as 1.92 s.
Turning to 1,4-butanediol dibut-1-ynyl carbonate, in series [3], the “tmax” value turned out to be 2.46 s.
Consider `CCC#COCCOC(COCC)OC#CCC` (centres unmarked) [1,4-triethyleneglycol dibut-1-ynyl ether], for which, in series [1], the “Viscosity at 25° C.” value was 17.2 mPa*s. The “tmax” value in series [3] is given as 2.46 s.
On to `C=C(C)C(=O)OCCCCOC(=O)C(=C)C` [1,4-butanediol dimethacrylate, reference compound], for which the “Viscosity at 25° C.” value in series [1] stood at 4.6 mPa*s. In series [2], the “Cytotoxicity, in words” value is “particularly cytotoxic” and the Concentration limit is below 160 µM. Further, the “tmax” value in series [3] stood at 6.72 s.
Consider `C#CCOCCCCOCC#C` [1,4-butanediol dipropargyl ether], for which, in series [1], the “Viscosity, in words” value is “relatively low values” and the “Viscosity at 25° C.” value was determined as 4.7 mPa*s. In series [2], the “Cytotoxicity, in words” value is “excellently low cytotoxicity” and the Concentration limit was above 1600 µM. Moreover, the EC50 in series [2] (Mus musculus) worked out at 3000 µM. Further, the “tmax” value in series [3] was determined as 5.12 s.
In series [2], 1,4-butanediol dipropargyl carbonate had an EC50 of 550 µM. In series [3], the “tmax” value was found to be 3.00 s.

The record behind these values is patent US20170051112A1, “RESIN COMPOSITION SUITABLE FOR PRINTING AND PRINTING METHOD UTILIZING THE SAME” (MONTANUNIVERSITÄT LEOBEN, priority 2014, published 2017).
